According to the NIST ThermoML archive (doi:10.1021/je900284z):
Where “and” joins values, the source holds several entries; their conditions need not be identical. Identical values can stand only once.

Conditions: Liquid; for viscosity: Falling or rolling sphere viscometry; for mass density: 101.33 kPa

CC(C)CCCCCCCOC(=O)c1ccccc1C(=O)OCCCCCCCC(C)C
Conditions	viscosity
273.15 K, 100 kPa	625.8 mPa·s
273.15 K, 9900 kPa	845.1 mPa·s
298.15 K, 100 kPa	87.41 mPa·s and 87.37 mPa·s
298.15 K, 9600 kPa	110.7 mPa·s
298.15 K, 20600 kPa	145 mPa·s
298.15 K, 20700 kPa	145.5 mPa·s
298.15 K, 30100 kPa	182.5 mPa·s
298.15 K, 30300 kPa	183 mPa·s
298.15 K, 40700 kPa	234.2 mPa·s
298.15 K, 50200 kPa	289.4 mPa·s
298.15 K, 59200 kPa	356.2 mPa·s
298.15 K, 71600 kPa	465.4 mPa·s
298.15 K, 82000 kPa	589 mPa·s
298.15 K, 83300 kPa	608.4 mPa·s
313.15 K, 100 kPa	37.71 mPa·s
313.15 K, 10900 kPa	47.29 mPa·s
313.15 K, 21200 kPa	58.95 mPa·s
313.15 K, 30600 kPa	71.54 mPa·s
313.15 K, 40900 kPa	88.99 mPa·s
313.15 K, 51600 kPa	109.1 mPa·s
313.15 K, 62400 kPa	136.7 mPa·s
313.15 K, 71300 kPa	160.8 mPa·s
313.15 K, 80300 kPa	192.4 mPa·s
313.15 K, 89800 kPa	234.4 mPa·s
338.15 K, 100 kPa	13.37 mPa·s [middle of 4 runs]
338.15 K, 9700 kPa	15.54 mPa·s
338.15 K, 10700 kPa	16.28 mPa·s
338.15 K, 19400 kPa	18.62 mPa·s
338.15 K, 20500 kPa	19.38 mPa·s
338.15 K, 31000 kPa	23.29 mPa·s
338.15 K, 31770 kPa	23.04 mPa·s
338.15 K, 40100 kPa	27.24 mPa·s
338.15 K, 41110 kPa	26.91 mPa·s
338.15 K, 50300 kPa	32.42 mPa·s
338.15 K, 51100 kPa	31.86 mPa·s
338.15 K, 60400 kPa	38.31 mPa·s
338.15 K, 60510 kPa	37.34 mPa·s
338.15 K, 70700 kPa	45.25 mPa·s
338.15 K, 70710 kPa	43.6 mPa·s
338.15 K, 80200 kPa	52.53 mPa·s
338.15 K, 80970 kPa	51.73 mPa·s
348.15 K, 100 kPa	9.71 mPa·s
348.15 K, 9800 kPa	11.47 mPa·s
348.15 K, 20600 kPa	13.71 mPa·s
348.15 K, 30230 kPa	15.96 mPa·s
348.15 K, 31300 kPa	16.34 mPa·s
348.15 K, 40810 kPa	18.91 mPa·s
348.15 K, 50600 kPa	22.15 mPa·s
348.15 K, 50710 kPa	22.05 mPa·s
348.15 K, 61220 kPa	25.89 mPa·s
348.15 K, 69800 kPa	29.77 mPa·s
348.15 K, 72330 kPa	30.55 mPa·s
348.15 K, 85770 kPa	37.23 mPa·s

CCCCC(CC)COC(=O)c1ccccc1C(=O)OCC(CC)CCCC (centres undefined) [bis(2-ethylhexyl) 1,2-benzenedicarboxylate]
Conditions	viscosity
273.15 K, 100 kPa	359.9 mPa·s and 359.7 mPa·s
273.15 K, 24100 kPa	680.7 mPa·s
283.15 K, 100 kPa	158 mPa·s and 158.6 mPa·s
283.15 K, 400 kPa	160.2 mPa·s
283.15 K, 20800 kPa	266.5 mPa·s
283.15 K, 41000 kPa	430.5 mPa·s
283.15 K, 60000 kPa	663.5 mPa·s
283.15 K, 80400 kPa	1034 mPa·s
283.15 K, 100100 kPa	1566 mPa·s
283.15 K, 123400 kPa	2473 mPa·s
298.15 K, 100 kPa	58.79 mPa·s and 57.58 mPa·s and 57.59 mPa·s
298.15 K, 600 kPa	59.35 mPa·s
298.15 K, 25800 kPa	103.4 mPa·s
298.15 K, 50000 kPa	167.4 mPa·s
298.15 K, 50900 kPa	174.2 mPa·s
298.15 K, 76300 kPa	287.8 mPa·s
298.15 K, 100500 kPa	455.2 mPa·s
298.15 K, 126600 kPa	730.7 mPa·s
298.15 K, 150400 kPa	1103 mPa·s
298.15 K, 174300 kPa	1631 mPa·s
298.15 K, 199800 kPa	2527 mPa·s
303.15 K, 100 kPa	44.29 mPa·s and 44.2 mPa·s and 43.49 mPa·s
310.93 K, 100 kPa	28.88 mPa·s [middle of 4 runs]
310.93 K, 47400 kPa	73.56 mPa·s
310.93 K, 75300 kPa	120.3 mPa·s
310.93 K, 99500 kPa	185.1 mPa·s
310.93 K, 148600 kPa	413.1 mPa·s
310.93 K, 176000 kPa	617.9 mPa·s
310.93 K, 201800 kPa	912.7 mPa·s
310.93 K, 223800 kPa	1259 mPa·s
310.93 K, 247800 kPa	1794 mPa·s
310.93 K, 250800 kPa	1819 mPa·s
310.93 K, 274000 kPa	2555 mPa·s
313.15 K, 100 kPa	26.6 mPa·s and 26.58 mPa·s
323.15 K, 100 kPa	17.17 mPa·s and 17.01 mPa·s and 17.1 mPa·s
323.15 K, 700 kPa	17.26 mPa·s
323.15 K, 10600 kPa	20.76 mPa·s
323.15 K, 25700 kPa	27.26 mPa·s
323.15 K, 50700 kPa	42.19 mPa·s
323.15 K, 75600 kPa	63.74 mPa·s
323.15 K, 100600 kPa	94.67 mPa·s
323.15 K, 125600 kPa	138.7 mPa·s
323.15 K, 150600 kPa	200.2 mPa·s
323.15 K, 175600 kPa	286.3 mPa·s
323.15 K, 200300 kPa	403.4 mPa·s
323.15 K, 223100 kPa	539 mPa·s
323.15 K, 252300 kPa	794.8 mPa·s
323.15 K, 276700 kPa	1055.1 mPa·s
323.15 K, 295400 kPa	1355.1 mPa·s
323.15 K, 323700 kPa	1952.3 mPa·s
333.15 K, 100 kPa	11.73 mPa·s and 11.71 mPa·s
343.15 K, 100 kPa	8.499 mPa·s and 8.51 mPa·s
348.15 K, 100 kPa	7.416 mPa·s and 7.422 mPa·s
348.15 K, 50800 kPa	15.52 mPa·s
348.15 K, 54100 kPa	16.45 mPa·s
348.15 K, 75900 kPa	22.09 mPa·s
348.15 K, 100800 kPa	30.91 mPa·s
348.15 K, 103500 kPa	32.17 mPa·s
348.15 K, 125800 kPa	42.61 mPa·s
348.15 K, 150800 kPa	58.12 mPa·s
348.15 K, 175700 kPa	78.72 mPa·s
348.15 K, 200700 kPa	105.6 mPa·s
348.15 K, 225500 kPa	140.4 mPa·s
348.15 K, 250300 kPa	185.6 mPa·s
348.15 K, 275000 kPa	243.8 mPa·s
348.15 K, 299100 kPa	316.7 mPa·s
348.15 K, 324100 kPa	412.7 mPa·s
348.15 K, 348100 kPa	529.4 mPa·s
348.15 K, 371000 kPa	669 mPa·s

Conditions	mass density [kg/m3]
273.15 K	998.82
278.15 K	995.01
283.15 K	991.26
293.15 K	983.87
298.15 K	980.15
303.15 K	976.42
313.15 K	968.98
323.15 K	961.53
333.15 K	954.11
343.15 K	946.68
353.15 K	939.27
363.15 K	931.85
